# Reference: ChEMBL document CHEMBL1201862, “PubChem BioAssay data set” (2004)
# The source made the active and inactive calls.
# Key:
# Vero [1] = test: cells; assay type: functional; settings: Chlorocebus sabaeus
# [2] = biological target: SWI/SNF-related matrix-associated actin-dependent regulator of chromatin subfamily A member 2 (Homo sapiens, UniProt P51531); test: Luminescence-based cell-based high throughput dose response assay to identify activators of the function of SWI/SNF related, matrix associated, actin dependent regulator of chromatin, subfamily a, member 2 (SMARCA2, BRM).; assay type: functional
# [3] = Counterscreen for activators of the function of SWI/SNF related, matrix associated, actin dependent regulator of chromatin, subfamily a, member 2 (SMARCA2, BRM): Luminescence-based cell-based high throughput dose response assay to identify non-selective compounds using the VP16 reporter assay.; assay type: functional
# Vero [4] = test: cells; assay type: functional, cell-based; settings: Chlorocebus sabaeus
# [5] = biological target: 26S proteasome non-ATPase regulatory subunit 14 (Homo sapiens, UniProt O00487); test: inhibition of proteasome subunit RPN11 – biochemical, fluorescence polarization, uHTS hits, confirmation (AID 602368); assay type: functional
# [6] = biological target: 72 kDa type IV collagenase (Homo sapiens, UniProt P08253); test: Dose Response validation of uHTS RPN11 inhibitor hits using a MMP-2 Fluorescence assay.; assay type: functional
# Prothrombin = Prothrombin (Bos taurus, UniProt P00735); test: thrombin inhibition, dose response, biochemical, fluorescence polarization, uHTS hits (AID 602369); assay type: functional
# cells [7] = assay type: functional, cell-based
# [8] = biological target: Nuclear receptor subfamily 0 group B member 1 (Homo sapiens, UniProt P51843); assay type: functional, cell-based;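 also: HEK293T cells transfected with SF-1 and DAX-1 plus StAR promoter luciferase reporter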
# [9] = biological target: Melanin-concentrating hormone receptor 1 (Homo sapiens, UniProt Q99705); test: Late-stage fluorescence-based counterscreen for antagonists of the G-protein coupled receptor 7 (GPR7): cell-based dose response assay to identify antagonists of the melanin-concentrating hormone receptor 1 (MCHR1) Set 6.; assay type: functional
# [10] = inhibitors of firefly luciferase expression or activity, dose response, H4 neuroglioma cells, luminescence (AID 1990); assay type: functional, cell-based
# cells [11] = assay type: functional, cell-based; remark: listed apart in the source
# [12] = Luminescence Cell-Based Dose Response HTS to Identify Inhibitors of 5'UTR Stem-Loop Driven Prion Protein mRNA Translation in H4 Neuroglioblastoma Cells. [Related pubchem assays: 1827 (Project Summary), 1813 (Primary HTS)]; assay type: functional
# [13] = inhibitors of SNCA 5'UTR-driven reporter translation, confirmation, H4 neuroglioma cells, luminescence (AID 1988); assay type: functional, cell-based
# cells [14] = assay type: functional, cell-based; remark: listed apart in the source
# [15] = biological target: T1, Microphthalmia-associated transcription factor (Homo sapiens, UniProt O75030); test: TRPM1 promoter luciferase signal decrease, dose response, MITF inhibitor project, cell-based, SK-MEL-5, cherry-picked, set 3 (AID 493073); assay type: functional
# T1 sequence (O75030 whole entry): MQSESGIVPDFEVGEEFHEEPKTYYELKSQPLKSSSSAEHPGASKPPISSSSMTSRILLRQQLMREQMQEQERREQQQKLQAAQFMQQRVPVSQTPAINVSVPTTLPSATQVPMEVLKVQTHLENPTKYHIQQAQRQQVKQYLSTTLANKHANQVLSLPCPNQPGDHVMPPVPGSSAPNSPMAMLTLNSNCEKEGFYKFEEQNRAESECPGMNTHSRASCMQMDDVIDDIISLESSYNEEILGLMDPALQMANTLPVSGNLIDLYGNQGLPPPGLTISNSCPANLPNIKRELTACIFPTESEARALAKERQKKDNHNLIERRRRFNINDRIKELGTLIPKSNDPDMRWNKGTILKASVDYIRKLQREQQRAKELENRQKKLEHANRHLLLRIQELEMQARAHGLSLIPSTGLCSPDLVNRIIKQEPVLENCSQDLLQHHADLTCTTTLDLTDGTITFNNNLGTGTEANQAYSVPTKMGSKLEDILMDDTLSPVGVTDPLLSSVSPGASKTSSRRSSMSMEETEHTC
# INS1 = test: beta cell apoptosis inhibitors, cytokine rescue, dose response, luminescence, retest (AID 449756); assay type: functional, cell-based; settings: Rattus norvegicus;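 also: cell death triggered by IL-1 beta plus TNF-alpha plus IFN-gamma mixture; protective hits raise ATP signal compared with cytokine alone wells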
# A-375 = test: A375 melanoma cell viability reduction, dose response, counter-screen for MITF modulator project, cherry-pick samples, set 2 (AID 540335); assay type: functional, cell-based; settings: Homo sapiens
# Escherichia coli = test: microbe, parasite or virus in culture
# Large T antigen = Large T antigen (Simian virus 40, UniProt P03070); assay type: functional, Betapolyomavirus macacae;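 also: Confirmatory-stage PubChem screen for compounds that inhibit SV40 T antigen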
# [16] = Luminescence Cell-Based Dose Retest to Confirm Inhibitors of Cancer Stem Cells. [Related pubchem assays (depositor defined):AID2717, AID2721]; assay type: functional; settings: Homo sapiens
# [17] = biological target: T2, Rac GTPase-activating protein 1 (Homo sapiens, UniProt Q9H0H5); test: MgcRacGAP GTPase-activating activity inhibitors, confirmation, biochemical, ADP Hunter fluorescence, primary and confirmatory (AID 624330); assay type: functional
# T2 sequence (Q9H0H5 whole entry): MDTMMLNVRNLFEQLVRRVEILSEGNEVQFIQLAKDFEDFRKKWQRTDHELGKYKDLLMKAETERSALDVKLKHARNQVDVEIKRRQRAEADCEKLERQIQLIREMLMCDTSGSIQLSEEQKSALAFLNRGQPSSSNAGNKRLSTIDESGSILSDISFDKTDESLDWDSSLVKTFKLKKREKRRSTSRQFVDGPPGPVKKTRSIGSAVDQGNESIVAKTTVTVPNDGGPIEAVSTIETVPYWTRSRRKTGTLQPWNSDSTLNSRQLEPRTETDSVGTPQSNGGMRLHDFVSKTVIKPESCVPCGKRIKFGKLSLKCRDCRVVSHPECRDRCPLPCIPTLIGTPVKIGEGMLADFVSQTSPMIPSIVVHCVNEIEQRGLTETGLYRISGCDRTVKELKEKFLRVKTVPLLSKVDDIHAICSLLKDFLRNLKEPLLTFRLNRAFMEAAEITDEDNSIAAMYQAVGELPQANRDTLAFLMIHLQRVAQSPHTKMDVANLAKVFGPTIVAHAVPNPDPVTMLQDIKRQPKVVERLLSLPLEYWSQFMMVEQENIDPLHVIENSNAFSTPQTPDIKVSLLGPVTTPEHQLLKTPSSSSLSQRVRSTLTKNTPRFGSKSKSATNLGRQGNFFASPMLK
# [18] = AlphaScreen signal interference compounds, dose response, artefact control for ARNT-TACC3 interaction inhibitor project, biochemical, luminescence, cherry-pick (AID 651705); assay type: functional;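 also: AlphaScreen bead proximity signal that flags compounds interfering with the detection technology; potency reflects signal decrease which marks the compound as an assay artifact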
# Sequence of SWI/SNF-related matrix-associated actin-dependent regulator of chromatin subfamily A member 2 (P51531 whole entry): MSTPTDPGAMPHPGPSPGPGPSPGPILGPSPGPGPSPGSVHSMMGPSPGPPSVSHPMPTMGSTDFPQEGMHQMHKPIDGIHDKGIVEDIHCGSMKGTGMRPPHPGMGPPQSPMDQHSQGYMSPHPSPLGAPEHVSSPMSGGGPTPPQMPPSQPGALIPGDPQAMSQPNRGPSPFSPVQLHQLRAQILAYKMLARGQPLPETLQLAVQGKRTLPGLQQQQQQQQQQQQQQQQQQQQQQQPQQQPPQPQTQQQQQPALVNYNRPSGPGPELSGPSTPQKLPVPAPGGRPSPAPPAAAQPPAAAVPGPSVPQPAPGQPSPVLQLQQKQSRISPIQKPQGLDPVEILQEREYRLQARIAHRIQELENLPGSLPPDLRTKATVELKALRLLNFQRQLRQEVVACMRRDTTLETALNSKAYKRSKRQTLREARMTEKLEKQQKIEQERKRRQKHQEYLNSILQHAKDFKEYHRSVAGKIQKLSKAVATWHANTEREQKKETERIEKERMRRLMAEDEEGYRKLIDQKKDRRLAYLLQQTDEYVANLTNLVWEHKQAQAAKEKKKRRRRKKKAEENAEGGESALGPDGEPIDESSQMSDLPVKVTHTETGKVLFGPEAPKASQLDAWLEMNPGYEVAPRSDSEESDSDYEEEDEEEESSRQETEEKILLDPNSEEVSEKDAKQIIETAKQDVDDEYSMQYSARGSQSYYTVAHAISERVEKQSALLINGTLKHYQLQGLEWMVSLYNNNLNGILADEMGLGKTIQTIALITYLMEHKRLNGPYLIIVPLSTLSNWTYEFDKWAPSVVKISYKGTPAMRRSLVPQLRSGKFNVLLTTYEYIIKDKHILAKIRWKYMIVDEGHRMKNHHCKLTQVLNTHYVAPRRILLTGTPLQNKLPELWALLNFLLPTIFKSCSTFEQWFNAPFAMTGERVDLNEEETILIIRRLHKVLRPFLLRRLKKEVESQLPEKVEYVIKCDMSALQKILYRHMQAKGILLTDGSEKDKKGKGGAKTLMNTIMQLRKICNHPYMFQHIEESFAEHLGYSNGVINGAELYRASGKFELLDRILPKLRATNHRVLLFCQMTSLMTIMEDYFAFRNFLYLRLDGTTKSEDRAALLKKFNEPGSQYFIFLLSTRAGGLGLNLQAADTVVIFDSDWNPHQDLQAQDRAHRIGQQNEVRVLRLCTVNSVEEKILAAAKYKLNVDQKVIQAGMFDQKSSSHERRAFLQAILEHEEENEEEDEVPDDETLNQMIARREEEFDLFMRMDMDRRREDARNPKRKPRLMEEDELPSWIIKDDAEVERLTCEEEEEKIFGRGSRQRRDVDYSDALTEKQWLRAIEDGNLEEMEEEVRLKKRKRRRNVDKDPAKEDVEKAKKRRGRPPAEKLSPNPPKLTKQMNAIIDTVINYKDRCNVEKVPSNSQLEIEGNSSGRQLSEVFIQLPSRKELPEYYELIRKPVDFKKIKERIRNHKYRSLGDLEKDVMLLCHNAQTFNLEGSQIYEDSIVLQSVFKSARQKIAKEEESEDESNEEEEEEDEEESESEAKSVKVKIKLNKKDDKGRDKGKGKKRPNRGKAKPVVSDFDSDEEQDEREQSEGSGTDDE
# Sequence of 72 kDa type IV collagenase (P08253 whole entry): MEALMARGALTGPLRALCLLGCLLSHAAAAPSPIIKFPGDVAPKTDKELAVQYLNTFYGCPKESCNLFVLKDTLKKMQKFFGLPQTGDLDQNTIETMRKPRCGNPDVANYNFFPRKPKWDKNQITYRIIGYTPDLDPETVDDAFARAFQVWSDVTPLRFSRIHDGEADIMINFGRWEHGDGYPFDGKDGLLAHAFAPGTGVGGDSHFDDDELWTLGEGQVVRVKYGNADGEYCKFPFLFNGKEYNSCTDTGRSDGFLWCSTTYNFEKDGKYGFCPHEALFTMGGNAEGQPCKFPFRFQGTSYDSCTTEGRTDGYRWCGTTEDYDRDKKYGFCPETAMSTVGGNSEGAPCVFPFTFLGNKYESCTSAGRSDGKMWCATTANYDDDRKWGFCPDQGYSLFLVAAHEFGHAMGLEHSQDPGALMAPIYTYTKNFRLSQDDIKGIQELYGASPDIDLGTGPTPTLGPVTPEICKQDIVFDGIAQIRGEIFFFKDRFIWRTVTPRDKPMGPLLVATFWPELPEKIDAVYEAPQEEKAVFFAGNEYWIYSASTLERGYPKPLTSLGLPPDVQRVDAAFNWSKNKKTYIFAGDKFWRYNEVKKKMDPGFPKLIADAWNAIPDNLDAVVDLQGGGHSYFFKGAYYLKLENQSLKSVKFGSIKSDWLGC
# Sequence of Melanin-concentrating hormone receptor 1 (Q99705 whole entry): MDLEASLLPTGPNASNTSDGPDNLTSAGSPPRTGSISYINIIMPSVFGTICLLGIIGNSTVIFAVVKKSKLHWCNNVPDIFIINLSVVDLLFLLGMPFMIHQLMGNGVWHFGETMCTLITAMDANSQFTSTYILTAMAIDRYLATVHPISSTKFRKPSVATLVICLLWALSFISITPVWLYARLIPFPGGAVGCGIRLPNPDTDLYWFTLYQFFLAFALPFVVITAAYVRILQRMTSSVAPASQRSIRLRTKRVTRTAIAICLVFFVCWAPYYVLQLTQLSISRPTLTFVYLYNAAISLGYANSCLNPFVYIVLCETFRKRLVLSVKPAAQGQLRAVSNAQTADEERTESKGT
# Sequence of Nuclear receptor subfamily 0 group B member 1 (P51843 whole entry): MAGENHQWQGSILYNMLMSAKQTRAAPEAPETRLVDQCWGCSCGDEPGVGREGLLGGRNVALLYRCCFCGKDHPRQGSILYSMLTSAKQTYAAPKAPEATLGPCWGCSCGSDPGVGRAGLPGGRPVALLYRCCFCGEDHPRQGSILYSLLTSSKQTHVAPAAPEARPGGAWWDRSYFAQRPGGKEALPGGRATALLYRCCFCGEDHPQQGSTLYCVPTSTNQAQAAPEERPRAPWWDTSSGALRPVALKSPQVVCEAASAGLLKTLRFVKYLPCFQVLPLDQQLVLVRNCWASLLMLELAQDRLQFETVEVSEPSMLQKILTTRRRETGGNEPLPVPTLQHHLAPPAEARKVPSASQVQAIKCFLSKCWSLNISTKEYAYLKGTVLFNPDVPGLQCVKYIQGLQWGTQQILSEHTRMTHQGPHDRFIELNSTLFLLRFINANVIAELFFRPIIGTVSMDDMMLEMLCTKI
# Sequence of 26S proteasome non-ATPase regulatory subunit 14 (O00487 whole entry): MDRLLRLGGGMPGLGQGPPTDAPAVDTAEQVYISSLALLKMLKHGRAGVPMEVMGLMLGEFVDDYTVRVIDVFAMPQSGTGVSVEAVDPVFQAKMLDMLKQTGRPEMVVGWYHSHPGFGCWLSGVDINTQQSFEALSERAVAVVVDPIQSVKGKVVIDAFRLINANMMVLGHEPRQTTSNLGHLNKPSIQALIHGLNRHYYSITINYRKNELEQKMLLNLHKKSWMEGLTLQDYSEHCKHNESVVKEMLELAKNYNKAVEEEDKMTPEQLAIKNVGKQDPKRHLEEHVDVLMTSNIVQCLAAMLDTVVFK
# Sequence of Large T antigen (P03070 whole entry): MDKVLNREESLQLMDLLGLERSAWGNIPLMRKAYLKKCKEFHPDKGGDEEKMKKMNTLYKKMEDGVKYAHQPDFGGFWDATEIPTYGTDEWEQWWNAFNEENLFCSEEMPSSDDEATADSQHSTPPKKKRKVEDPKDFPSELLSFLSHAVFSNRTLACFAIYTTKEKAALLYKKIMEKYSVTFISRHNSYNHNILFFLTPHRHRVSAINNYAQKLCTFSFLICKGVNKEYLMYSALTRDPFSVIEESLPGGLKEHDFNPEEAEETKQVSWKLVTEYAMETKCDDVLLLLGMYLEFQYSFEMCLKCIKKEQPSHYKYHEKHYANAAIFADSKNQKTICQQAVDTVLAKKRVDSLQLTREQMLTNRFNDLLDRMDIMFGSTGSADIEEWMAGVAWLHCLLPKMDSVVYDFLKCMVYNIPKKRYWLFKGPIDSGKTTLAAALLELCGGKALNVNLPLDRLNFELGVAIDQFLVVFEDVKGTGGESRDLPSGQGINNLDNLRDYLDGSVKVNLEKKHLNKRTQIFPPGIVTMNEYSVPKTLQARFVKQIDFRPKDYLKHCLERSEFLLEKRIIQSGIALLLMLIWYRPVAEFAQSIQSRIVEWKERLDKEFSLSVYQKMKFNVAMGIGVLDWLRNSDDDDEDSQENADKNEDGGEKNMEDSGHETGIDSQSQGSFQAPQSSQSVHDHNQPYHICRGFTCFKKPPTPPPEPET
structure (smiles),measurement,setting,value
C=CCN1C(=O)/C(=C/c2ccc(Br)s2)C(=O)NC1=S,CC50,Vero [1],24.2 µM (active)
O=C(NC(=S)Nc1ccc(Br)cn1)c1cccnc1,EC50,[2],> 91.2 µM (inactive)
same,EC50,[3],> 91.2 µM (inactive)
Cc1ccc(S(=O)(=O)n2cccc2/C=C/[N+](=O)[O-])cc1,IC50,Vero [4],> 25 µM (active)
same,CC50,Vero [1],9.49 µM (active)
CSc1nc2c(=S)n(C)c(=O)n(C)c2[nH]1,EC50,[2],> 91.2 µM (inactive)
same,EC50,[3],> 91.2 µM (inactive)
O=C(N/N=C/c1ccccc1)c1ccc(CN2C(=O)c3cccc4cccc2c34)cc1,IC50,[5],10.7 µM (active)
same,IC50,[6],> 100 µM (inactive)
same,IC50,Prothrombin,69.8 µM (active)
O=C(N/N=C/c1ccsc1)c1ccccn1,IC50,cells [7],> 67.5 µM (inactive)
same,IC50,[8],> 67.5 µM (inactive)
COC(=O)c1nn(-c2ccc(C(C)C)cc2)c(=O)c(Oc2ccc(OC)cc2)c1Cl,IC50,[9],3.57 µM (active)
Cc1cc(C)n(CCC(=O)N/N=C/c2c(O)ccc3ccccc23)n1,EC50,[10],11 µM (active)
same,EC50,cells [11],9.7 µM (active)
same,EC50,[12],11 µM (active)
same,EC50,[13],8.69 µM (active)
same,EC50,cells [14],> 350 µM (not active)
same,AC50,[15],45.1 µM (active)
same,AC50,INS1,3.53 µM (active)
same,AC50,A-375,52.3 µM (active)
same,AC50,Escherichia coli,40.1 µM (active)
C=CCn1c(CNc2ccccc2)nnc1SCC(=O)N/N=C/c1ccc(O)cc1O,IC50,Large T antigen,> 100 µM (active)
same,AC50,[16],5.46 µM (active)
same,IC50,[17],68.8 µM (active)
same,AC50,[18],102 µM (active)
